Data published in PubChem BioAssay (NCI).
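In this assay, cells in 96-well plates receive the compound at five concentrations for 48 hours. Endpoints are linearly interpolated between the surrounding concentrations. GI50 marks 50% less growth. TGI marks complete inhibition of growth.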

Experiments:
Experiment in all cases: NCI-60 cell line screen, 48 h
[1] = test system: OVCAR-5 ovarian
[2] = test system: SNB-19 CNS
[3] = test system: U251 CNS
[4] = test system: HCT-116 colon
[5] = test system: MDA-MB-435
[6] = test system: NCI-H460 lung
[7] = test system: EKVX NSCLC
[8] = test system: IGROV1 ovarian
[9] = test system: SF-539 CNS
[10] = test system: ACHN renal
[11] = test system: 786-0 renal
[12] = test system: UACC-62 melanoma
[13] = test system: KM12 colon
[14] = test system: SR leukemia
[15] = test system: OVCAR-8 ovarian
[16] = test system: MDA-MB-231 breast
[17] = test system: HL-60(TB) leukemia
[18] = test system: SK-OV-3 ovarian
[19] = test system: LOX IMVI melanoma
[20] = test system: A498 renal
[21] = test system: RXF 393 renal
[22] = test system: SW-620 colon
[23] = test system: HT29 colon
[24] = test system: BT-549 breast
[25] = test system: SF-295 CNS
[26] = test system: COLO 205 colon
[27] = test system: NCI-H522 lung
[28] = test system: MOLT-4 leukemia
[29] = test system: DU-145 prostate
[30] = test system: SN12C renal
[31] = test system: RPMI-8226 leukemia
[32] = test system: CCRF-CEM leukemia
[33] = test system: MCF7 breast
[34] = test system: NCI-H226 lung
[35] = test system: UO-31 renal
[36] = test system: A549 NSCLC
[37] = test system: HS 578T breast
[38] = test system: NCI-H23 lung
[39] = test system: TK-10 renal
[40] = test system: OVCAR-4 ovarian
[41] = test system: OVCAR-3 ovarian
[42] = test system: HCC-2998 colon
[43] = test system: HOP-92 NSCLC
[44] = test system: HOP-62 NSCLC
[45] = test system: SNB-75 CNS
[46] = test system: UACC-257 melanoma
[47] = test system: SK-MEL-5 melanoma
[48] = test system: MALME-3M melanoma
[49] = test system: HCT-15 colon
[50] = test system: SF-268 CNS
[51] = test system: NCI/ADR-RES ovarian
[52] = test system: K-562 leukemia
[53] = test system: PC-3 prostate
[54] = test system: CAKI-1 renal
[55] = test system: SK-MEL-2 melanoma
[56] = test system: SK-MEL-28 melanoma

Question: For `CN1C(=O)N(C)C2C1NN=c1s/c(=C\c3ccccc3F)c(=O)n12` (stereo unspecified), which GI50 [1] is on record?
Answer: 496 nM

Question: And the TGI [1]?
Answer: > 100000 nM

Question: What about the GI50 [2] of the same molecule?
Answer: 448 nM

Question: What about the TGI [2] of the same molecule?
Answer: > 100000 nM

Question: And the GI50 [3]?
Answer: 356 nM

Question: What about the TGI [3] of the same molecule?
Answer: > 100000 nM

Question: What about the GI50 [4] of the same molecule?
Answer: 354 nM

Question: What about the TGI [4] of the same molecule?
Answer: > 56600 nM

Question: What about the GI50 [5] of the same molecule?
Answer: 38.7 nM

Question: And the TGI [5]?
Answer: 184 nM

Question: What about the GI50 [6] of the same molecule?
Answer: 351 nM

Question: And the TGI [6]?
Answer: > 100000 nM

Question: And the GI50 [7]?
Answer: 398 nM

Question: What about the TGI [7] of the same molecule?
Answer: > 100000 nM

Question: What about the GI50 [8] of the same molecule?
Answer: 633 nM

Question: And the TGI [8]?
Answer: > 100000 nM

Question: And the GI50 [9]?
Answer: 217 nM

Question: And the TGI [9]?
Answer: 639 nM

Question: And the GI50 [10]?
Answer: 684 nM

Question: What about the TGI [10] of the same molecule?
Answer: > 100000 nM

Question: And the GI50 [11]?
Answer: 741 nM

Question: What about the TGI [11] of the same molecule?
Answer: > 100000 nM

Question: And the GI50 [12]?
Answer: 371 nM

Question: And the TGI [12]?
Answer: > 100000 nM

Question: What about the GI50 [13] of the same molecule?
Answer: 198 nM

Question: What about the TGI [13] of the same molecule?
Answer: > 60200 nM

Question: And the GI50 [14]?
Answer: 93 nM

Question: And the TGI [14]?
Answer: > 100000 nM

Question: And the GI50 [15]?
Answer: 516 nM

Question: What about the TGI [15] of the same molecule?
Answer: > 100000 nM

Question: And the GI50 [16]?
Answer: 541 nM

Question: And the TGI [16]?
Answer: > 41600 nM

Question: And the GI50 [17]?
Answer: 224 nM

Question: And the TGI [17]?
Answer: 633 nM

Question: What about the GI50 [18] of the same molecule?
Answer: 446 nM

Question: What about the TGI [18] of the same molecule?
Answer: > 100000 nM

Question: What about the GI50 [19] of the same molecule?
Answer: 565 nM

Question: What about the TGI [19] of the same molecule?
Answer: > 100000 nM

Question: And the GI50 [20]?
Answer: 175 nM

Question: What about the TGI [20] of the same molecule?
Answer: 929 nM

Question: What about the GI50 [21] of the same molecule?
Answer: 159 nM

Question: And the TGI [21]?
Answer: 491 nM

Question: And the GI50 [22]?
Answer: 296 nM

Question: What about the TGI [22] of the same molecule?
Answer: > 100000 nM

Question: What about the GI50 [23] of the same molecule?
Answer: 312 nM

Question: What about the TGI [23] of the same molecule?
Answer: > 36700 nM

Question: What about the GI50 [24] of the same molecule?
Answer: 1390 nM

Question: And the TGI [24]?
Answer: > 100000 nM

Question: What about the GI50 [25] of the same molecule?
Answer: 186 nM

Question: What about the TGI [25] of the same molecule?
Answer: > 100000 nM

Question: And the GI50 [26]?
Answer: 328 nM

Question: And the TGI [26]?
Answer: 1430 nM

Question: And the GI50 [27]?
Answer: 229 nM

Question: And the GI50 [28]?
Answer: 520 nM

Question: What about the TGI [28] of the same molecule?
Answer: > 100000 nM

Question: What about the GI50 [29] of the same molecule?
Answer: 325 nM

Question: What about the TGI [29] of the same molecule?
Answer: 23900 nM

Question: And the GI50 [30]?
Answer: 671 nM

Question: What about the TGI [30] of the same molecule?
Answer: > 100000 nM

Question: And the GI50 [31]?
Answer: 364 nM

Question: What about the TGI [31] of the same molecule?
Answer: > 66800 nM

Question: What about the GI50 [32] of the same molecule?
Answer: 335 nM

Question: What about the TGI [32] of the same molecule?
Answer: > 100000 nM

Question: What about the GI50 [33] of the same molecule?
Answer: 69 nM

Question: And the TGI [33]?
Answer: > 100000 nM

Question: And the GI50 [34]?
Answer: 1230 nM

Question: What about the TGI [34] of the same molecule?
Answer: > 100000 nM

Question: What about the GI50 [35] of the same molecule?
Answer: 657 nM

Question: And the TGI [35]?
Answer: > 100000 nM

Question: What about the GI50 [36] of the same molecule?
Answer: 439 nM

Question: And the TGI [36]?
Answer: > 100000 nM

Question: What about the GI50 [37] of the same molecule?
Answer: 287 nM

Question: What about the TGI [37] of the same molecule?
Answer: > 100000 nM

Question: And the GI50 [38]?
Answer: 534 nM

Question: And the TGI [38]?
Answer: > 100000 nM

Question: And the GI50 [39]?
Answer: > 20800 nM

Question: And the TGI [39]?
Answer: > 100000 nM

Question: What about the GI50 [40] of the same molecule?
Answer: 1410 nM

Question: What about the TGI [40] of the same molecule?
Answer: > 100000 nM

Question: What about the GI50 [41] of the same molecule?
Answer: 170 nM

Question: What about the TGI [41] of the same molecule?
Answer: 680 nM

Question: And the GI50 [42]?
Answer: 422 nM

Question: And the TGI [42]?
Answer: > 100000 nM

Question: And the GI50 [43]?
Answer: 8510 nM

Question: What about the TGI [43] of the same molecule?
Answer: > 100000 nM

Question: And the GI50 [44]?
Answer: 480 nM

Question: What about the TGI [44] of the same molecule?
Answer: > 100000 nM

Question: And the GI50 [45]?
Answer: 80.7 nM

Question: And the TGI [45]?
Answer: 547 nM

Question: And the GI50 [46]?
Answer: > 100000 nM

Question: What about the TGI [46] of the same molecule?
Answer: > 100000 nM

Question: And the GI50 [47]?
Answer: 188 nM

Question: What about the TGI [47] of the same molecule?
Answer: 4110 nM

Question: And the GI50 [48]?
Answer: 325 nM

Question: What about the TGI [48] of the same molecule?
Answer: > 100000 nM

Question: And the GI50 [49]?
Answer: 145 nM

Question: What about the TGI [49] of the same molecule?
Answer: > 100000 nM

Question: And the GI50 [50]?
Answer: 1220 nM

Question: And the TGI [50]?
Answer: > 100000 nM

Question: And the GI50 [51]?
Answer: 229 nM

Question: What about the TGI [51] of the same molecule?
Answer: > 100000 nM

Question: And the GI50 [52]?
Answer: 117 nM

Question: What about the TGI [52] of the same molecule?
Answer: > 100000 nM

Question: And the GI50 [53]?
Answer: 296 nM

Question: What about the TGI [53] of the same molecule?
Answer: > 100000 nM

Question: And the GI50 [54]?
Answer: 140 nM

Question: What about the TGI [54] of the same molecule?
Answer: > 100000 nM

Question: What about the GI50 [55] of the same molecule?
Answer: 629 nM

Question: And the TGI [55]?
Answer: > 100000 nM

Question: And the GI50 [56]?
Answer: 5750 nM

Question: And the TGI [56]?
Answer: > 100000 nM
